The record followed here is article PMC9808420 (Biomedicine & Pharmacotherapy, 2023).

Structures can show the parent of a compound that is named as a salt. Where two headings read alike, the source gives them in different places.

Usually EC50 stands for the concentration that produces a half-maximal response. A word on the Kd: it is the concentration at which binding is half-saturated.

One assay deals with SARS-CoV-2 pseudovirus. As to the kind of experiment: organism not typed. It is filed as cell-based. Particulars: read-out: EC50 (S).
Assay [1] has as its system VSV-G pseudotyped lentivirus. As to the kind of experiment: microbe, parasite or virus in culture. The assay is classed as cell-based. As to conditions: read-out: EC50 (VSVG).
The target of assay [2] is SARS-CoV-2 Spike protein RBD and human ACE2 (Severe acute respiratory syndrome coronavirus 2, UniProt P0DTC2). It is filed as binding, SARS-CoV-2; human.
In the next assay the target is RBD domain of S protein (Severe acute respiratory syndrome coronavirus 2, UniProt P0DTC2). As to the kind of experiment: biochemical. The assay is classed as binding, SARS-CoV-2.

Regarding Teicoplanin, the 50% effective concentration (EC50) (in the assay with SARS-CoV-2 pseudovirus; in assay [1]) was above 100 µM in each case. For the same molecule, in assay [2], the “Blocking of binding of SARS-CoV-2 RBD to ACE2 in vitro” value was “fail to block binding”. The Kd on RBD domain of S protein (read-out: KD (equilibrium dissociation constant)) turned out to be 0.673 mM.
As to `CN[C@H](CC(C)C)C(=O)N[C@H]1C(=O)N[C@@H](CC(N)=O)C(=O)N[C@H]2C(=O)N[C@H]3C(=O)N[C@H](C(=O)N[C@H](C(=O)O)c4cc(O)cc(O)c4-c4cc3ccc4O)[C@H](O)c3ccc(c(Cl)c3)Oc3cc2cc(c3O[C@@H]2O[C@H](CO)[C@@H](O)[C@H](O)[C@H]2O[C@H]2C[C@](C)(N)[C@H](O)[C@H](C)O2)Oc2ccc(cc2Cl)[C@H]1O` [Vancomycin hydrochloride], the EC50 (in the assay with SARS-CoV-2 pseudovirus (48 h); in assay [1] (Lentivirus)) was above 100 µM each time. For the same molecule, the Kd at RBD domain of S protein is 1.6 mM.
